The subject of one data set is P493-6 cells. Put plainly: cell cycle distribution by flow cytometry, P493-6. The class given is cell-based. The settings on record: 5 μM, 48 hours. As for the experimental part: FIG. 4: MYCMI-7 induces apoptosis in malignant cells and growth arrest in normal cells. A) Cell cycle distribution analysis by flow cytometry of MYC-regulated P493-6 cells and normal rat embryo fibroblasts (REFs). Left panel, P493-6 synchronized in G0 by 24 hours treatment of […] doxycycline. Doxycycline was removed and the cells were harvested 48 hours after the addition of fresh medium containing DMSO or 5 μM MYCMI-7. Right panel, flow cytometry analysis of normal REFs treated with DMSO or 5 μM MYCMI-7. B) Apoptosis assay using the Cell Death Detection ELISA^plus kit. Left panel, immortalized Rat1 fibroblasts with different MYC status after 24 hours of 5 μM MYCMI-7 treatment, middle panel and right panels, normal REFs and normal peripheral blood lymphocytes, respectively, after 24 and 48 hours of 5 μM MYCMI-7 treatment. […] Viability was measured by trypan blue exclusion assay. F) Cell growth measured with Cyt62 assay of primary normal human epidermal melanocytes (NHEM) treated for 72 hours with MYCMI-7, G) Viability measured by trypan blue exclusion assay of NHEM after treatment for 72 hours with MYCMI-7.
Flow cytometry: P493-6 cells were synchronized using 1 μg/ml doxycycline. […] Cells were stained with propidium iodide (Sigma) and 1×10^4 cells per treatment were analyzed using a FACScan and CellQuestPro (Becton Dickinson). […]
On the technique in general: Flow cytometry measures light scatter and fluorescence of single cells or particles in a stream.

The target in another data set is T1, MYC protein turnover (Homo sapiens, UniProt P01106).
T1 construct: Endogenous MYC was immunoprecipitated and detected by western blot analysis; endogenous in cells; host or cells: MCF7, HeLa, P493-6, HCT116 (WT, FBW7-/-, p53-/-)
T1 sequence (P01106 16-454): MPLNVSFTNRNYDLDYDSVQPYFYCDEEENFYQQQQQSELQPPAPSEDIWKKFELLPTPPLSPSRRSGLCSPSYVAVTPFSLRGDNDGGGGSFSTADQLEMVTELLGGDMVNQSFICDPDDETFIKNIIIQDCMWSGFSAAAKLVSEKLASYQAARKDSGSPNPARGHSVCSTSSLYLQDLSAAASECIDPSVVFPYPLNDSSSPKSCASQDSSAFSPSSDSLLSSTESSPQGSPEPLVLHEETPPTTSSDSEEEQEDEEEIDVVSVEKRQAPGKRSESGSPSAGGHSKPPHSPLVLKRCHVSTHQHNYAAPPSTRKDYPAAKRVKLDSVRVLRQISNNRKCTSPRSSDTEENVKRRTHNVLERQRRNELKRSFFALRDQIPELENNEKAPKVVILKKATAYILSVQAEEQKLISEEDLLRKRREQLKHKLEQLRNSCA
As to the kind of experiment: cycloheximide (CHX) chase of MYC. The format is cell-based. Particulars: wt HCT116 cells, 5 μM. As for the experimental part:
FIG. 2: MYCMI-7 downregulates MYC and MYCN protein expresión. A) Steady state levels of MYC protein in MCF7 cells after 17 hours exposure to indicated concentrations MYCMI-7 or ellipticine B) MYC mRNA expression in MCF7 cells after treatment with MYCMI-7 for various time points. C) Steady state levels of MYC protein in different HCT116 cell lines (WT, FBW7−/− or p53−/−) after 17 hours exposure to 5 μM MYCMI-7. Endogenous MYC was immunoprecipitated and detected by western blot analysis. D) Cycloheximide (CHX) chase in HCT116 cells. Cells were subjected to 5 μM MYCMI-7 30 min prior cycloheximide addition. Cells were harvested after the indicated time points, MYC was immunoprecipitated using N262 antibody and the MYC levels analyzed using western blot (C33 antibody). E) CHX chase after MYCMI-7 treatment performed as in (D) using Fbxw7-deficient HCT116 cells. F) Stable expression of wt, T58A or S62A MYC in HO15.19 MYC−/− cells. The cells were treated with 5 μM MYCMI-7 overnight, and MYC expression was analyzed by western blot. G) Cartoon showing a linear structural representation of wt MYC and indicated mutants. […]
For western blot equal amounts of proteins ([…]) were separated on a 4-12% SDS-PAGE gel. Proteins were transferred to Immobilion-P membrane (Millipore) and detected by immunostaining and chemoluminescence (Immobilion western HRP substrate; Millipore). […]

For another data set, the system named is A375 melanoma cells. As to the kind of experiment: Apo-Tox Glo Triplex assay, A375. The class given is cell-based. Particulars: 3 days of treatment. As for the experimental part:
FIG. 4: MYCMI-7 induces apoptosis in malignant cells and growth arrest in normal cells. A) Cell cycle distribution analysis by flow cytometry of MYC-regulated P493-6 cells and normal rat embryo fibroblasts (REFs). Left panel, P493-6 synchronized in G0 by 24 hours treatment of […] doxycycline. Doxycycline was removed and the cells were harvested 48 hours after the addition of fresh medium containing DMSO or 5 μM MYCMI-7. Right panel, flow cytometry analysis of normal REFs treated with DMSO or 5 μM MYCMI-7. B) Apoptosis assay using the Cell Death Detection ELISA^plus kit. Left panel, immortalized Rat1 fibroblasts with different MYC status after 24 hours of 5 μM MYCMI-7 treatment, middle panel and right panels, normal REFs and normal peripheral blood lymphocytes, respectively, after 24 and 48 hours of 5 μM MYCMI-7 treatment. C) Measurement of viability and apoptosis by Apo-Tox Glo Triplex assay in A375 melanoma cells after 3 days of treatment with MYCMI-7 with the indicated concentrations. […] E) NHDFs treated with 3 μM MYCMI-7 for 72 hrs. Viability was measured by trypan blue exclusion assay. F) Cell growth measured with Cyt62 assay of primary normal human epidermal melanocytes (NHEM) treated for 72 hours with MYCMI-7, G) Viability measured by trypan blue exclusion assay of NHEM after treatment for 72 hours with MYCMI-7.

A further data set in a line: pharmacokinetics in mice. Particulars: 6.25 mg/kg i.p.
The test system of data set [1] is wt and p53-deficient HCT116 cells. As to the kind of experiment: WST1 assay in wt and p53-deficient HCT116 cells. The format is cell-based. Particulars: titration.

The values that follow come from US20250122193A1, “NOVEL PYRIDOCARBAZOLIUM COMPOUNDS AND MEDICAL USES THEREOF” (MyCural Therapeutics, priority 2021, published 2025).

SMILES strings stand for the structures.

Protocol for pharmacokinetics in mice: Blood and brains were collected from three to four mice per group at 0, 1, 2, 4 and 24 hours following injection of 6.25 mg/kg ToM. Plasma samples were extracted using protein precipitation. Brain samples were extracted by homogenization in acetonitrile:DMSO, 95:5 using a gentleMACS Dissociater and gentleMACS™ M Tubes. The protein in the mouse plasma samples was removed by protein precipitation with acetonitrile containing the internal standard. After protein precipitation the study samples were centrifuged, and the resulting supernatant was analyzed. The acetonitrile:DMSO from the brain sample homogenates were spiked with the internal standard and then analyzed. All samples were analyzed by first separating them by reversed phase gradient LC and subsequently detecting them using positive electrospray ionization and multiple reaction monitoring (MRM).
First, we performed a pharmacokinetic study of the behavior of the molecule in mice.

For `CCN(CC)CC[n+]1ccc2c(C)c3[nH]c4ccccc4c3c(C)c2c1` [MYCMI-7, 2-(5,11-Dimethyl-6H-25-pyrido[4,3-b]carbazol-2-yl)-N,N-diethylethanamine bromide], in the data set with P493-6 cells, the “G1/S ratio compared to DMSO” value was “higher G1/S ratio” and the “cell death (sub-G1 cells)” value is on record as “strongly induced cell death”. The “turnover rate of MYC (CHX chase)” value at MYC protein turnover was “increased”. Also, in the data set on A375 melanoma cells, the GI50 entry was “nanomolar range” and the “apoptosis (caspase activation)” value was “induced apoptosis in a dose-dependent manner”. Also, in the data set “pharmacokinetics in mice”, the “detection in the brain” value is “could not be detected”. The “growth response or MYC expression, wt versus p53-deficient cells” value in data set [1] was “no difference”.
